Active and inactive are the calls of the source. The rule behind the calls is not given here.
Assays:
Escherichia coli [1] = assay: Antimicrobial activity against Escherichia coli at 50 ug/well after 24 hrs by agar well diffusion method; type: functional; details: read-out: DIZ
Penicillium chrysogenum [2] = assay: Antimicrobial activity against Penicillium chrysogenum at 25 ug/well after 48 hrs by agar well diffusion method; type: functional; details: for zone of inhibition at 25 µg/disc: read-out: DIZ
Escherichia coli [3] = assay: Antimicrobial activity against Escherichia coli at 100 ug/well after 24 hrs by agar well diffusion method; type: functional; details: read-out: DIZ
Pseudomonas aeruginosa [4] = assay: Antimicrobial activity against Pseudomonas aeruginosa at 50 ug/well after 24 hrs by agar well diffusion method; type: functional; details: read-out: DIZ
Staphylococcus aureus [5] = assay: Antimicrobial activity against Staphylococcus aureus at 50 ug/well after 24 hrs by agar well diffusion method; type: functional; details: read-out: DIZ
Aspergillus niger [6] = assay: Antimicrobial activity against Aspergillus niger at 50 ug/well after 48 hrs by agar well diffusion method; type: functional; details: read-out: DIZ
A549 [7] = assay: Cytotoxicity against human A549 cells assessed as reduction in cell viability after 20 hrs by MTT assay; type: functional, cell-based; details: for IC50: A549, 20 h
Penicillium chrysogenum [8] = assay: Antimicrobial activity against Penicillium chrysogenum at 100 ug/well after 48 hrs by agar well diffusion method; type: functional; details: read-out: DIZ
Aspergillus niger [9] = assay: Antimicrobial activity against Aspergillus niger at 25 ug/well after 48 hrs by agar well diffusion method; type: functional; details: for zone of inhibition at 25 µg/disc: read-out: DIZ
Pseudomonas aeruginosa [10] = assay: Antimicrobial activity against Pseudomonas aeruginosa at 25 ug/well after 24 hrs by agar well diffusion method; type: functional; details: read-out: DIZ
Aspergillus niger [11] = assay: Antimicrobial activity against Aspergillus niger at 100 ug/well after 48 hrs by agar well diffusion method; type: functional; details: read-out: DIZ
Staphylococcus aureus [12] = assay: Antimicrobial activity against Staphylococcus aureus at 100 ug/well after 24 hrs by agar well diffusion method; type: functional; details: read-out: DIZ
Escherichia coli [13] = assay: Antimicrobial activity against Escherichia coli at 25 ug/well after 24 hrs by agar well diffusion method; type: functional; details: read-out: DIZ
Penicillium chrysogenum [14] = assay: Antimicrobial activity against Penicillium chrysogenum at 50 ug/well after 48 hrs by agar well diffusion method; type: functional; details: read-out: DIZ
Staphylococcus aureus [15] = assay: Antimicrobial activity against Staphylococcus aureus at 25 ug/well after 24 hrs by agar well diffusion method; type: functional; details: read-out: DIZ
Pseudomonas aeruginosa [16] = assay: Antimicrobial activity against Pseudomonas aeruginosa at 100 ug/well after 24 hrs by agar well diffusion method; type: functional; details: read-out: DIZ
A549 [17] = assay: Cytotoxicity against human A549 cells assessed as reduction in cell viability up to 200 uM after 20 hrs by MTT assay; type: functional, cell-based

Structure (SMILES): Cc1cc(Sc2nc3ccccc3s2)nc(SCc2nc3ccccc3s2)n1
- zone of inhibition at 50 µg/disc (Escherichia coli [1]): 17 mm
- zone of inhibition at 25 µg/disc (Penicillium chrysogenum [2]): 12 mm
- zone of inhibition at 100 µg/disc (Escherichia coli [3]): 20 mm
- zone of inhibition at 50 µg/disc (Pseudomonas aeruginosa [4]): 15 mm
- zone of inhibition at 50 µg/disc (Staphylococcus aureus [5]): 12 mm
- zone of inhibition at 50 µg/disc (Aspergillus niger [6]): 12 mm
- inhibition (A549 [7]): Dose-dependent effect
- IC50 (A549 [7]): 70 µM
- zone of inhibition at 100 µg/disc (Penicillium chrysogenum [8]): 15 mm
- zone of inhibition at 25 µg/disc (Aspergillus niger [9]): 10 mm
- zone of inhibition at 25 µg/disc (Pseudomonas aeruginosa [10]): 13 mm
- zone of inhibition at 100 µg/disc (Aspergillus niger [11]): 15 mm
- zone of inhibition at 100 µg/disc (Staphylococcus aureus [12]): 16 mm
- zone of inhibition at 25 µg/disc (Escherichia coli [13]): 14 mm
- zone of inhibition at 50 µg/disc (Penicillium chrysogenum [14]): 13 mm
- zone of inhibition at 25 µg/disc (Staphylococcus aureus [15]): 10 mm
- zone of inhibition at 100 µg/disc (Pseudomonas aeruginosa [16]): 16 mm

Structure (SMILES): Cc1cc(Cl)nc(SCc2nc3ccccc3o2)n1
- zone of inhibition at 50 µg/disc (Escherichia coli [1]): 8 mm
- diameter of the inhibition zone (DIZ) (Penicillium chrysogenum [2]): inactive
- zone of inhibition at 100 µg/disc (Escherichia coli [3]): 11 mm
- zone of inhibition at 50 µg/disc (Pseudomonas aeruginosa [4]): 7 mm
- zone of inhibition at 50 µg/disc (Staphylococcus aureus [5]): 7 mm
- zone of inhibition at 50 µg/disc (Aspergillus niger [6]): 7 mm
- zone of inhibition at 100 µg/disc (Penicillium chrysogenum [8]): 10 mm
- diameter of the inhibition zone (DIZ) (Aspergillus niger [9]): inactive
- Activity (A549 [17]): inactive
- zone of inhibition at 25 µg/disc (Pseudomonas aeruginosa [10]): 5 mm
- zone of inhibition at 100 µg/disc (Aspergillus niger [11]): 9 mm
- zone of inhibition at 100 µg/disc (Staphylococcus aureus [12]): 8 mm
- zone of inhibition at 25 µg/disc (Escherichia coli [13]): 6 mm
- zone of inhibition at 50 µg/disc (Penicillium chrysogenum [14]): 8 mm
- zone of inhibition at 25 µg/disc (Staphylococcus aureus [15]): 5 mm
- zone of inhibition at 100 µg/disc (Pseudomonas aeruginosa [16]): 8 mm

Structure (SMILES): Cc1cc(Sc2nc3ccccc3o2)nc(SCc2nc3ccccc3o2)n1
- zone of inhibition at 50 µg/disc (Escherichia coli [1]): 15 mm
- zone of inhibition at 25 µg/disc (Penicillium chrysogenum [2]): 9 mm
- zone of inhibition at 100 µg/disc (Escherichia coli [3]): 17 mm
- zone of inhibition at 50 µg/disc (Pseudomonas aeruginosa [4]): 11 mm
- zone of inhibition at 50 µg/disc (Staphylococcus aureus [5]): 11 mm
- zone of inhibition at 50 µg/disc (Aspergillus niger [6]): 10 mm
- zone of inhibition at 100 µg/disc (Penicillium chrysogenum [8]): 13 mm
- zone of inhibition at 25 µg/disc (Aspergillus niger [9]): 8 mm
- Activity (A549 [17]): inactive
- zone of inhibition at 25 µg/disc (Pseudomonas aeruginosa [10]): 10 mm
- zone of inhibition at 100 µg/disc (Aspergillus niger [11]): 12 mm
- zone of inhibition at 100 µg/disc (Staphylococcus aureus [12]): 14 mm
- zone of inhibition at 25 µg/disc (Escherichia coli [13]): 10 mm
- zone of inhibition at 50 µg/disc (Penicillium chrysogenum [14]): 11 mm
- zone of inhibition at 25 µg/disc (Staphylococcus aureus [15]): 9 mm
- zone of inhibition at 100 µg/disc (Pseudomonas aeruginosa [16]): 14 mm

Structure (SMILES): Cc1cc(Nc2nc3ccccc3[nH]2)nc(SCc2nc3ccccc3[nH]2)n1
- zone of inhibition at 50 µg/disc (Escherichia coli [1]): 22 mm
- zone of inhibition at 25 µg/disc (Penicillium chrysogenum [2]): 29 mm
- zone of inhibition at 100 µg/disc (Escherichia coli [3]): 25 mm
- zone of inhibition at 50 µg/disc (Pseudomonas aeruginosa [4]): 19 mm
- zone of inhibition at 50 µg/disc (Staphylococcus aureus [5]): 17 mm
- zone of inhibition at 50 µg/disc (Aspergillus niger [6]): 23 mm
- zone of inhibition at 100 µg/disc (Penicillium chrysogenum [8]): 33 mm
- zone of inhibition at 25 µg/disc (Aspergillus niger [9]): 20 mm
- Activity (A549 [17]): inactive
- zone of inhibition at 25 µg/disc (Pseudomonas aeruginosa [10]): 16 mm
- zone of inhibition at 100 µg/disc (Aspergillus niger [11]): 25 mm
- zone of inhibition at 100 µg/disc (Staphylococcus aureus [12]): 20 mm
- zone of inhibition at 25 µg/disc (Escherichia coli [13]): 19 mm
- zone of inhibition at 50 µg/disc (Penicillium chrysogenum [14]): 31 mm
- zone of inhibition at 25 µg/disc (Staphylococcus aureus [15]): 15 mm
- zone of inhibition at 100 µg/disc (Pseudomonas aeruginosa [16]): 21 mm

Structure (SMILES): Cc1cc(Nc2nc3ccccc3s2)nc(SCc2nc3ccccc3s2)n1
- zone of inhibition at 50 µg/disc (Escherichia coli [1]): 20 mm
- zone of inhibition at 25 µg/disc (Penicillium chrysogenum [2]): 27 mm
- zone of inhibition at 100 µg/disc (Escherichia coli [3]): 23 mm
- zone of inhibition at 50 µg/disc (Pseudomonas aeruginosa [4]): 17 mm
- zone of inhibition at 50 µg/disc (Staphylococcus aureus [5]): 16 mm
- zone of inhibition at 50 µg/disc (Aspergillus niger [6]): 19 mm
- inhibition (A549 [7]): Dose-dependent effect
- IC50 (A549 [7]): 10.5 µM
- zone of inhibition at 100 µg/disc (Penicillium chrysogenum [8]): 32 mm
- zone of inhibition at 25 µg/disc (Aspergillus niger [9]): 17 mm
- zone of inhibition at 25 µg/disc (Pseudomonas aeruginosa [10]): 14 mm
- zone of inhibition at 100 µg/disc (Aspergillus niger [11]): 21 mm
- zone of inhibition at 100 µg/disc (Staphylococcus aureus [12]): 18 mm
- zone of inhibition at 25 µg/disc (Escherichia coli [13]): 15 mm
- zone of inhibition at 50 µg/disc (Penicillium chrysogenum [14]): 29 mm
- zone of inhibition at 25 µg/disc (Staphylococcus aureus [15]): 13 mm
- zone of inhibition at 100 µg/disc (Pseudomonas aeruginosa [16]): 18 mm

Structure (SMILES): Cc1cc(Cl)nc(SCc2nc3ccccc3[nH]2)n1
- zone of inhibition at 50 µg/disc (Escherichia coli [1]): 13 mm
- zone of inhibition at 25 µg/disc (Penicillium chrysogenum [2]): 8 mm
- zone of inhibition at 100 µg/disc (Escherichia coli [3]): 16 mm
- zone of inhibition at 50 µg/disc (Pseudomonas aeruginosa [4]): 10 mm
- zone of inhibition at 50 µg/disc (Staphylococcus aureus [5]): 10 mm
- zone of inhibition at 50 µg/disc (Aspergillus niger [6]): 9 mm
- zone of inhibition at 100 µg/disc (Penicillium chrysogenum [8]): 12 mm
- zone of inhibition at 25 µg/disc (Aspergillus niger [9]): 7 mm
- Activity (A549 [17]): inactive
- zone of inhibition at 25 µg/disc (Pseudomonas aeruginosa [10]): 8 mm
- zone of inhibition at 100 µg/disc (Aspergillus niger [11]): 11 mm
- zone of inhibition at 100 µg/disc (Staphylococcus aureus [12]): 12 mm
- zone of inhibition at 25 µg/disc (Escherichia coli [13]): 8 mm
- zone of inhibition at 50 µg/disc (Penicillium chrysogenum [14]): 10 mm
- zone of inhibition at 25 µg/disc (Staphylococcus aureus [15]): 8 mm
- zone of inhibition at 100 µg/disc (Pseudomonas aeruginosa [16]): 12 mm

From ChEMBL document CHEMBL3233012, “Synthesis, antimicrobial and cytotoxic activities of pyrimidinyl benzoxazole, benzothiazole and benzimidazole” (Eur J Med Chem, 2014)
